Test results published in patent US10213449B2, “Compositions and methods for treating medulloblastoma” (The Board of Trustees of the Leland Stanford Junior …, priority 2016, dated 2019).
“Also recorded” adds a separate entry of the source.

Tests used:
[1] = test system: Ptch+/−; Trp53−/− MB flank allografts; assay: Flank allograft study, Ptch+/−; Trp53−/− MB; assay type: in vivo, mouse; conditions: TBB 30 mg/kg IP BID; effect as early as 3 days after initiating treatment; vs vehicle control
Description: In vivo efficacy studies were performed in accordance with protocols approved by the Institutional Animal Care and Use Committee at Stanford University. SmoWT-MB and Smo[…]-MB cells isolated from either parental SmoWT or Smo[…] mouse Ptch^+/-; p53^-/- MB hind-flank allografts were kindly provided by Charles Rudin (Memorial Sloan-Kettering Cancer Center). Ptch+/-; Tpr53-/-, or, Ptch+/-; Tpr53-/-; Smo[…] MB cells were mixed 1:1 with matrigel and 10^7 cells were injected into both flanks of a Nu/Nu mouse. Once tumors reached 225-275 mm^3, mice were randomized to treatment vs. control groups. Treatment groups received 30 mg/kg IP BID of TBB (reconstituted in DMSO at 50 ug/uL), or 37.5 mg/kg IP BID of GDC-0449 (reconstituted in DMSO at 62.5 ug/uL). Control mice were treated with an equivalent volume of DMSO. Corn oil was used in all groups to a total volume of 180 uL/injection and all doses were given with a 28 g insulin syringe. Tumors were measured and mice were weighed daily. Once tumors reached 1.5 cm^2 or met institutional euthanasia criteria, mice were sacrificed and tumors were harvested. Growth curves were generated using GraphPad Prism and significance was measured by two-way ANOVA.

Gli2 = Gli2 stability; assay type: cell-based, mouse
Description: Epistasis studies were next performed to determine where in the hedgehog pathway CK2 acts. The effect of TBB was examined: (i) in NIH 3T3s stimulated with SAG, a SMO agonist, (ii) in Sufu−/− mouse embryonic fibroblasts (MEF), and (iii) in NIH 3T3 cells overexpressing GLI2 (FIG. 3d-3f).
Gli2ΔN cells were lysed with RIPA buffer (sc-24948, Santa Cruz Biotechnology) supplemented with Halt Protease & Phosphatase Inhibitor (Thermo #1861218) for 30 min on ice and lysates were cleared by centrifugation at 13000 rpm, 15 min at 4° C. Supernatants were incubated with 6× Lamelli sample buffer (10570021-1, BioWorld) at 95° C. for 5 min. The samples were then separated with a 7% SDS-PAGE gel and immunoblotted with anti-Gli2 (AF3635-SP, R&D) and anti-β-tubulin (ab6046, Abcam).

SMILES: Brc1c(Br)c(Br)c2[nH]nnc2c1Br [TBB, 4,5,6,7-tetrabromo-2H-benzotriazole]
- MB flank allograft growth [1]: significant inhibition; also recorded: decreased growth
- GLI2 protein driven off the CMV promoter-expression vector (Gli2; Gli2ΔN cells after TBB treatment): no decrease
- endogenous, full length Gli2 mRNA levels (Gli2; after TBB treatment): decreases
